Results: US20140314844A1, “ORAL COMPLEX FORMULATION COMPRISING OMEGA-3 FATTY ACID AND HMG-COA REDUCTASE INHIBITOR WITH IMPROVED STABILITY” (HANMI PHARM. CO., LTD, priority 2011, published 2014)

Assay: Suitability test between capsule ingredients and rosuvastatin calcium (heating, HPLC of related material RRT 0.72)
Assay type: physicochemical
Details: rosuvastatin 50 mg mixed with 100 mg capsule ingredient, heated at 100° C. for 2 hours, FIG. 1
Description: In order to evaluate interaction between the ingredients of a soft or hard capsule and statins, the following test was performed.
Specifically, gelatin (grade: 165 bloom, Geltech, Korea) which is a main ingredient of capsule; glycerol, propylene glycol and polyethylene glycol (PEG400), which are often used as a plasticizer; and sorbitol sorbitan solution (ROQUETTE, France, NF grade, containing solid content of 27.5 wt % of sorbitan and 34.4 wt % of sorbitol) were examined to evaluate the interaction with rosuvastatin calcium. In accordance with the ingredients described in Table 1, all ingredients were mixed, heated at 100° C. for 2 hours, and then evaluated by HPLC analysis.
HPLC analysis was performed using a stainless steel column of approximately 250 mm length, packed with 5 μm C18 or a similar column (Inertsil-ODS2, GL sciences) with a mobile phase of water:acetonitrile:1%(v/v) trifluoroacetic acid solution (62:37:1 (v/v)) at flow rate of 0.75 mL/min. The peak of related material as compared to the major peak of rosuvastatin, was analyzed quantitatively.

production of related material RRT 0.72: excluding
Structure (SMILES): CC(C)c1nc(N(C)S(C)(=O)=O)nc(-c2ccc(F)cc2)c1/C=C/[C@@H](O)C[C@@H](O)CC(=O)[O-].CC(C)c1nc(N(C)S(C)(=O)=O)nc(-c2ccc(F)cc2)c1/C=C/[C@@H](O)C[C@@H](O)CC(=O)[O-].[Ca+2] [Ref. Ex. 1, rosuvastatin calcium]
